Measured values from article PMC9448818 (Translational Psychiatry, 2022).

Experiments:
[1] = tested on: CYP2D6; details: cited from earlier work
[2] = Dose-adjusted serum concentrations of drug and metabolite (LC-MS/MS) by CYP2C19 and CYP2D6 metabolizer group; type: in vivo, human; details: vs NM
Excerpt: The 16-week study protocol consisted of two phases following screening and baseline visits. […] Blood samples were collected on Weeks 2, 10, and 16 to measure medication levels and on Week 4 for pharmacogenetic analyses. The methods used for the quantification of serum levels of drug and metabolite concentrations is described in the Supplementary Methods.
Serum concentrations were adjusted for dosage (i.e., ng/mL/mg). Sampling time (i.e., hours since the last dose) was entered as a covariate in the regression models to account for when the medication was taken.
The CYP2C19 metabolizer group was not included as a fixed effect covariate, as CYP2C19 is not known to be involved in the metabolism of ARI. […]
Collection of blood samples and quantification of serum drug and metabolite concentrations Participants self-reported the time at which the last dosage of the study medication was taken during the collection of the blood samples. […]
major metabolites, (S-DCT) and (DHA), were performed at the CAMH Clinical Laboratory using LC-MS/MS technology. Briefly, a mix of deuterated internal standards (Cerilliant) was added to 100 µL of each serum specimen, calibrator (Cerilliant) and quality control (MassCheck Antidepressants/Neuroleptics, Level 1 and Level 2). Proteins were precipitated with 300 µL of 9:1 Acetonitrile:Methanol (Sigma-Aldrich) followed by 5 min centrifugation at 9000 rpm. 25 µL of each supernatant was diluted with 200 µL of 0.1% Formic acid (Sigma-Aldrich) and then analyzed on the LC-MS/MS platform consisting of ThermoFisher TSQ Quantum Ultra mass spectrometer coupled with ThermoFisher Surveyor LC pump and HTC PAL autosampler fitted with a Kinetex F5 2.6 µm, 100 x 2.1 mm column (Phenomenex). Six minute gradient elution with 0.1% Formic Acid (mobile phase A) and Acetonitrile (mobile phase B) was applied. Collision energies ranged from 14 to […]
calibration curve ranging from 10 to 1000 ng/mL for each analyte.
Vendor nominal means for quality controls were used to assess the assay accuracy for each of the four analytes […]
precision was considered acceptable assay performance.
Data was analyzed with ThemoFisher XCalibur software.

CNCCC[C@@]1(c2ccc(F)cc2)OCc2cc(C#N)ccc21 [S-DCT, S-desmethylcitalopram]
inhibition of CYP2D6 in vitro [1]: weak inhibitors | B, S-DCTadj concentrations in serum, CYP2C19 IM+PM ([2]; Week 2 (Phase I)): -0.04 | B, S-DCTadj concentrations in serum, CYP2C19 RM+UM ([2]; Week 2 (Phase I)): 0.04 | B, S-DCTadj concentrations in serum, CYP2D6 IM+PM ([2]; Week 2 (Phase I)): -0.08 | B, S-DCTadj concentrations in serum, CYP2C19 IM+PM ([2]; Week 10, ESC+ARI arm): -0.02 | B, S-DCTadj concentrations in serum, CYP2C19 RM+UM ([2]; Week 10, ESC+ARI arm): 0.14 | B, S-DCTadj concentrations in serum, CYP2D6 IM+PM ([2]; Week 10, ESC+ARI arm): -0.11 | B, S-DCTadj concentrations in serum, CYP2C19 IM+PM ([2]; Week 10, ESC-Only arm): -0.12 | B, S-DCTadj concentrations in serum, CYP2C19 RM+UM ([2]; Week 10, ESC-Only arm): 0.02 | B, S-DCTadj concentrations in serum, CYP2D6 IM+PM ([2]; Week 10, ESC-Only arm): -0.11 | B, S-DCTadj concentrations in serum, CYP2C19 IM+PM ([2]; Week 16, ESC+ARI arm): -0.12 | B, S-DCTadj concentrations in serum, CYP2C19 RM+UM ([2]; Week 16, ESC+ARI arm): 0.08 | B, S-DCTadj concentrations in serum, CYP2D6 IM+PM ([2]; Week 16, ESC+ARI arm): -0.12 | B, S-DCTadj concentrations in serum, CYP2C19 IM+PM ([2]; Week 16, ESC-Only arm): -0.09 | B, S-DCTadj concentrations in serum, CYP2C19 RM+UM ([2]; Week 16, ESC-Only arm): 0.07 | B, S-DCTadj concentrations in serum, CYP2D6 IM+PM ([2]; Week 16, ESC-Only arm): -0.12
